In patent US9353154B2, “Compositions for labeling nerves and methods of use” (Avelas Biosciences, Inc., priority 2010, dated 2016):
“Also recorded” adds a separate entry of the source. Where a SMILES comes first, the peptide text is derived from it. The star is where a group is joined. 6FAM = O=C1OC2(c3ccc(O)cc3Oc3cc(O)ccc32)c2cc(C(=O)*)ccc21

How the values were obtained:
[1] = Plasma digestion of Peptide A followed by LC-MS; assay type: in vitro ADME; conditions: mouse plasma, 37° C.
Protocol: (§1) 6-Carboxylfluorescein (6-FAM) labeled peptide A (1 mg) was added to freshly prepared mouse plasma (0.5 mL). The resulting solution was gently mixed and incubated at 37° C. The reaction was followed by an LC-MS at different time points. An analogous procedure was done at room temperature with 1-5 mg of Peptide A.

[2] = Stability of peptide A in saline (control); assay type: physicochemical; conditions: 48 h
Protocol: as §1
The peak was isolated by preparative RP-HPLC. […] As a control, peptide A is stable in saline after 48 h (Chart E&F, FIG. 5).

mouse skin = test: In vivo skin fluorescence (full body imaging, skin staining activity); conditions: 150 nmol via tail vein injection, imaging at 2 h
Protocol: (§2) Fluorescence contrast activity of was assessed using male euthymic and immunocompetent hairless SKH1-E mice (25-35 grams). On the day of study, each involved mouse was weighed and restrained using the rotating tail injector for intravenous (tail vein) injection in conscious animal.
(§3) Test agents were injected intravenously into the tail vein (30-150 nmol in 0.1 mL/mouse). The animals were returned to assigned cage and kept under controlled environmental conditions before being examined for sciatic nerve fluorescence labeling 2 hours later.
(§4) Two hours after the intravenous injection, the mice were anesthetized with a mixture of ketamine HCl/Xylazine HCl solution administered intraperitoneally. The deeply anesthetized mice were transferred on the piece of cork for blunt dissection of sciatic nerve.
Full body imaging of deeply anesthetized mouse with open surgical wound/exposed sciatic nerve was then performed using a computerized imaging system with appropriate excitation/emission filters. The full body imaging was used to calculate the skin staining activity of the visualization agents.

mouse sciatic nerve = test: In vivo sciatic nerve fluorescence contrast (nerve vs surrounding muscle); conditions: 150 nmol via tail vein injection, imaging at 2 h
Protocol: as §2, §3, §4
After the full body imaging, the deeply anesthetized mice were transferred on the computerized fluorescent stereomicroscope equipped with appropriate excitation/emission filters to examine and record the fluorescence specific to sciatic nerve and compare it to that documented on the surrounding tissues such as muscle. All captured images were examined and analyzed using Image J to generate quantitative data.
For each experimental group, fluorescence intensities from each mouse sciatic nerve were averaged to generate the Mean±SEM value. The background was defined as the average fluorescence intensities of the muscle tissue surrounding the sciatic nerve. The fluorescence contrast (C) is defined and calculated as C=(IN−IB)/IB, where IN is the average nerve fluorescence intensity and IB is the average proximal background intensity. Constrast>0.4 is considered good.

| digested products in plasma ([1]; 3 h) | digestion in plasma (HPLC chromatogram, 220 nm absorbance) ([1]; 20 h) | digestion in plasma (HPLC chromatogram, 220 nm absorbance) ([1]; 48 h) | major truncated component after plasma digestion ([1]; peak isolated by preparative RP-HPLC) | stability in saline [2] | Compound | skin fluorescence compared to peptide A (mouse skin) | skin fluorescence compared to peptide A (mouse skin; listed as peptide 3) | fluorescence nerve contrast (mouse sciatic nerve) | fluorescence nerve contrast relative to peptide A (mouse sciatic nerve) | fluorescence nerve contrast (mouse sciatic nerve; listed as peptide 3) |
| --- | --- | --- | --- | --- | --- | --- | --- | --- | --- | --- |
| No detectable digested products | a new peak appeared | a new peak appeared | C-terminus lysine labeled with 6-FAM | stable | CC(=O)N[C@@H](CO)C(=O)N[C@@H](Cc1c[nH]cn1)C(=O)N[C@@H](CO)C(=O)N[C@@H](CC(N)=O)C(=O)N[C@H](C(=O)N[C@@H](CCC(N)=O)C(=O)N[C@H](C(=O)N[C@@H](CC(C)C)C(=O)N[C@@H](C)C(=O)N[C@@H](CCCCN)C(=O)N[C@@H](C)C(=O)N1CCC[C@H]1C(=O)N[C@@H](CCC(=O)O)C(=O)N[C@@H](Cc1c[nH]cn1)C(=O)N[C@H](C(=O)NCC(=O)N[C@@H](CCCCNC(=O)c1ccc2c(c1)C1(OC2=O)c2ccc(O)cc2Oc2cc(O)ccc21)C(N)=O)[C@@H](C)O)[C@@H](C)O)[C@@H](C)O [Peptide A, Ac-Ser-His-Ser-Asn-Thr-Gln-Thr-Leu-Ala-Lys-Ala-Pro-Glu-His-Thr-Gly-Lys(6FAM)-NH2] (Ac-SHSNTQTLAKAPEHTGK(6FAM)-NH2) |  |  |  |  |  |
|  |  |  |  |  | Ac-Glu-His-Thr-Gly-Lys(6FAM)-NH2 (Ac-EHTGK(6FAM)-NH2; SMILES CC(=O)N[C@@H](CCC(=O)O)C(=O)N[C@@H](Cc1c[nH]cn1)C(=O)N[C@H](C(=O)NCC(=O)N[C@@H](CCCCNC(=O)c1ccc2c(c1)C1(OC2=O)c2ccc(O)cc2Oc2cc(O)ccc21)C(N)=O)[C@@H](C)O) [Peptide 3] | significantly less | much less | high | greater | excellent; also recorded: very high |
